Consider 12 compounds from paper PMC9000336, “Development of Bicyclo[3.1.0]hexane-Based A3 Receptor Ligands: Closing the Gaps in the Structure–Affinity Relationships” (Molecules, 2022).

Assay [1] deals with T1, human adenosine A1 receptor (Homo sapiens, UniProt P30542).
T1 construct: expressed in transfected cells; host or cells: CHO cells (CHOhA1R), gift of Prof; S. J. Hill; membrane preparation
T1 sequence (P30542 1-326): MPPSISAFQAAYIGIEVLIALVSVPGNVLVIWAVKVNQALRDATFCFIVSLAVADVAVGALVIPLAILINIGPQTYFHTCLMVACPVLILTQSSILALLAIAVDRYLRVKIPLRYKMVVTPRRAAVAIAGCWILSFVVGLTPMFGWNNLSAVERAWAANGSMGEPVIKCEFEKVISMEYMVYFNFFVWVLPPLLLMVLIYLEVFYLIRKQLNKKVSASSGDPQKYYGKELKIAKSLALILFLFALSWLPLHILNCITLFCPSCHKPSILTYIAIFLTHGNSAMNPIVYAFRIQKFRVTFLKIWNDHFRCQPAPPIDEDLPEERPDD
The assay is described as follows: Radioligand displacement assay, human adenosine A1 receptor ([3H]DPCPX, CHOhA1R membranes). Format: binding. Particulars: for inhibition at 10 µM: test compound 10 µM; for inhibition at 10 µM / Ki / A1 displacement at 1 µM: n = 3; for A1 displacement at 1 µM: footnote a: test compound 1 µM. As to the method: Chinese hamster ovary (CHO) cells stably expressing the human adenosine A1 receptor (CHOhA1R) were kindly provided by Prof. S. J. Hill and CHO cells stably expressing the human adenosine A3 receptor (CHOhA3R) were a gift from Dr. K.-N. Klotz (University of Würzburg, Germany). Chinese hamster ovary cells stably expressing the human A1-receptor (CHOhA1R) or the human A3-receptor (CHOhA3R) were grown in Dulbecco’s Modified Eagle’s Medium (DMEM) and Ham’s F12 medium (1:1) supplemented with 10% (v/v) newborn calf serum, 50 µg/mL streptomycin, 50 IU/mL penicillin, and 200 µg/mL G418 at 37 °C and 5% CO2. […] All cells were grown to 80–90% confluency and detached from plates by scraping them into 5 mL phosphate-buffered saline. Detached cells were collected and centrifuged at 200 g for 5 min. Pellets derived from 100 15 cm Ø plates were pooled and resuspended in 70 mL of ice-cold 50 mM tris(hydroxymethyl)aminomethane (Tris)-HCl buffer, pH 7.4. A Heidolph Diax 900 homogenizer was used to homogenize the cell suspension. Membranes and the cytosolic fraction were separated by centrifugation at 100,000 g in a Beckman Optima LE-80 K ultracentrifuge (Beckman Coulter, Fullerton, CA, USA) at 4 °C for 20 min. The pellet was resuspended in 35 mL of the Tris-HCl buffer, and the homogenization and centrifugation steps were repeated. Tris-HCl buffer (25 mL) was used to resuspend the pellet, and adenosine deaminase (ADA) was added (0.8 U/mL) to break down endogenous adenosine. Membranes were stored in 250 µL and 500 µL aliquots at −80 °C. Total protein concentrations were measured using the bicinchoninic acid (BCA) method.
A1 Receptor: Membrane aliquots containing 5 µg (CHOhA1R) protein were incubated in a total volume of 100 µL assay buffer (50 mM Tris-HCl, pH 7.4) at 25 °C for 1 h. […] Nonspecific binding was determined in the presence of 100 µM N^6-cyclopentyladenosine (CPA). Incubations were terminated by rapid vacuum filtration to separate the bound and free radioligand through prewetted 96-well GF/B filter plates using a PerkinElmer Filtermate-harvester (Perkin Elmer, Groningen, the Netherlands). Filters were subsequently washed 12 times with ice-cold 50 mM Tris-HCl, pH 7.4.
(§1) The plates of all four adenosine receptor assays were dried at 55 °C after which MicroscintTM-20-cocktail was added (Perkin Elmer, Groningen, The Netherlands).
(§2) All experimental data were analyzed using the non-linear regression curve fitting program GraphPad Prism 7.0 (GraphPad Software Inc., San Diego, CA, USA). IC50 values obtained from competition displacement binding data were converted into Ki values using the Cheng–Prusoff equation.

Assay [2] addresses T2, hA2B receptor (Homo sapiens, UniProt P29275).
T2 construct: expressed in transfected cells; host or cells: CHO-spap cells (CHO-spap-hA2BR), from S. J. Dowell (GlaxoSmithKline); membrane preparation
T2 sequence (P29275 1-332): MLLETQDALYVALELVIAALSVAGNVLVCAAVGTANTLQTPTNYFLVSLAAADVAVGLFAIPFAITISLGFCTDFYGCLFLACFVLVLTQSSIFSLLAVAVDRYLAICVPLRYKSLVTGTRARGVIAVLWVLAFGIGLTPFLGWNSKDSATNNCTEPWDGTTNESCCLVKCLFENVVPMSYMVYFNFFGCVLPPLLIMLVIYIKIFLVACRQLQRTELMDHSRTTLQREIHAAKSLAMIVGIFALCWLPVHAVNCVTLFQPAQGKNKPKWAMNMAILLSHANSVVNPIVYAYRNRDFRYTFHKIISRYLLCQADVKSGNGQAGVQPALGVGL
The assay is described as follows: Radioligand displacement assay, human adenosine A2B receptor ([3H]PSB-603, CHO-spap-hA2BR membranes). Format: binding. Particulars: for Ki / A2B displacement at 1 µM: n = 3; for A2B displacement at 1 µM: footnote a: test compound 1 µM. As to the method:
Human embryonic kidney 293 cells stably expressing the human adenosine A2A receptor (HEK293hA2AR) were kindly provided by Dr. J. Wang (Biogen/IDEC, Cambridge, MA, USA), CHO-spap cells stably expressing the wild-type (WT) hA2B receptor (CHO-spap-hA2BR) were kindly provided by S. J. Dowell (GlaxoSmithKline, Brentfort, UK).
Chinese hamster ovary cells stably expressing the […] and a reporter gene, the secreted placental alkaline phosphatase, (CHO-spap-hA2BR) were grown in DMEM and Ham’s F12 medium (1:1) supplemented with 10% (v/v) newborn calf serum, 100 µg/mL streptomycin, 100 IU/mL penicillin, 1 mg/mL G418, and 0.4 mg/mL hygromycin at 37 °C and 5% CO2.
All cells were grown to 80–90% confluency and detached from plates by scraping them into 5 mL phosphate-buffered saline. Detached cells were collected and centrifuged at 200 g for 5 min. Pellets derived from 100 15 cm Ø plates were pooled and resuspended in 70 mL of ice-cold 50 mM tris(hydroxymethyl)aminomethane (Tris)-HCl buffer, pH 7.4. A Heidolph Diax 900 homogenizer was used to homogenize the cell suspension. Membranes and the cytosolic fraction were separated by centrifugation at 100,000 g in a Beckman Optima LE-80 K ultracentrifuge (Beckman Coulter, Fullerton, CA, USA) at 4 °C for 20 min. The pellet was resuspended in 35 mL of the Tris-HCl buffer, and the homogenization and centrifugation steps were repeated. Tris-HCl buffer (25 mL) was used to resuspend the pellet, and adenosine deaminase (ADA) was added (0.8 U/mL) to break down endogenous adenosine. Membranes were stored in 250 µL and 500 µL aliquots at −80 °C. Total protein concentrations were measured using the bicinchoninic acid (BCA) method.
A2B Receptor: Membrane aliquots containing 30 µg (CHO-spap-hA2BR) total protein were incubated in a total volume of 100 µL assay buffer (0.1% CHAPS in 50 mM TrisHCl, pH 7.4) at 25 °C for 2 h. […] Nonspecific binding was determined in the presence of 10 µM ZM241385. Incubations were terminated by rapid vacuum filtration to separate the bound and free radioligand through prewetted 96-well GF/B filter plates using a PerkinElmer Filtermate-harvester (Perkin Elmer, Groningen, the Netherlands). Filters were subsequently washed 12 times with ice-cold 0.1% BSA in 50 mM Tris-HCl, pH 7.4.
as §1, §2

The mark [3] stands for this setting: [3H]PSB-603, read-out: A2B Ki ± SEM.
Where [4] appears, read: footnote a: tested at 1 µM, read-out: A2B Ki (bound, footnote a).
Where [5] appears, read: footnote a: tested at 1 µM, read-out: A1 Ki (bound, footnote a).

Read-outs that look alike come from different tables or passages of the source.

Compound `CSc1nc(N(Cc2ccccc2)Cc2ccccc2)c2ncn([C@H]3[C@H](O)[C@H](O)[C@]4(CCl)C[C@H]34)c2n1` [Compound 31, (1S,2R,3S,4R,5S)-4-[6-(Dibenzylamino)-2-methylthio-9H-purin-9-yl]-1-(chloromethyl)bicyclo[3.1.0]hexane-2,3-diol] displayed an inhibition at 10 µM in assay [1] of 21%. Besides, the Ki in assay [2] (setting [3]) was above 10 µM.

In the case of `Nc1ncnc2c1ncn2[C@H]1[C@H](O)[C@H](O)[C@]2(CO)C[C@H]12` [Compound 36, (N)-methanocarba adenosine], the Ki in assay [1] ([3H]DPCPX, read-out: A1 Ki ± SEM) is 6.1 ± 0.46 µM; in assay [2] (setting [3]), above 10 µM. In addition, the “fold lower affinity towards A1 receptor than A3” value in assay [1] (relative to A3 Ki) worked out at 6 fold. Further, the “affinity at the A2B subtype” value in assay [2] was “no affinity”.

As for `CSc1nc(N)c2ncn([C@H]3[C@H](O)[C@H](O)[C@]4(Cn5cc(CO)nn5)C[C@H]34)c2n1` [Compound 39, (1R,2R,3S,4R,5S)-4-(6-Amino-2-methylthio-9H-purin-9-yl)-1-{[4-(hydroxymethyl)-1H-1,2,3-triazol-1-yl]methyl}bicyclo[3.1.0]hexane-2,3-diol], in assay [1], the inhibition at 10 µM stood at 5%. For the same compound, the Ki in assay [2] (setting [3]) is above 10 µM.

Regarding `COC(=O)c1cn(C[C@@]23C[C@@H]2[C@@H](n2cnc4c(N)nc(SC)nc42)[C@H](O)[C@@H]3O)nn1` [Compound 40, Methyl 1-{[(1R,2R,3S,4R,5S)-4-(6-amino-2-methylthio-9H-purin-9-yl)-2,3-dihydroxybicyclo[3.1.0]hex-1-yl]methyl}-1H-1,2,3-triazole-4-carboxylate], in assay [1], the inhibition at 10 µM was 7%. The Ki in assay [2] (setting [3]) is above 10 µM.

Regarding `COC(=O)Cc1cn(C[C@@]23C[C@@H]2[C@@H](n2cnc4c(N)nc(SC)nc42)[C@H](O)[C@@H]3O)nn1` [Compound 41, Methyl 2-(1-{[(1R,2R,3S,4R,5S)-4-(6-amino-2-methylthio-9H-purin-9-yl)-2,3-dihydroxybicyclo[3.1.0]hex-1-yl]methyl}-1H-1,2,3-triazol-4-yl)acetate], the “A1 displacement at 1 µM” value in assay [1] came out at 2% ^a. The Ki in assay [2] (setting [4]) was above 1 µM.

`COC(=O)CCc1cn(C[C@@]23C[C@@H]2[C@@H](n2cnc4c(N)nc(SC)nc42)[C@H](O)[C@@H]3O)nn1` [Compound 42, Methyl 3-(1-{[(1R,2R,3S,4R,5S)-4-(6-amino-2-methylthio-9H-purin-9-yl)-2,3-dihydroxybicyclo[3.1.0]hex-1-yl]methyl}-1H-1,2,3-triazol-4-yl)propanoate] came in with an inhibition at 10 µM in assay [1] of 19%. The Ki in assay [2] (setting [3]) is above 10 µM.

In assay [1], `CSc1nc(N)c2ncn([C@H]3[C@H](O)[C@H](O)[C@]4(Cn5cc(CN)nn5)C[C@H]34)c2n1` [Compound 43, (1R,2R,3S,4R,5S)-4-(6-Amino-2-methylthio-9H-purin-9-yl)-1-{[4-(aminomethyl)-1H-1,2,3-triazol-1-yl]methyl}bicyclo[3.1.0]hexane-2,3-diol] gave an inhibition at 10 µM of 5%. The Ki in assay [2] (setting [3]) was above 10 µM.

As to `CSc1nc(N)c2ncn([C@H]3[C@H](O)[C@H](O)[C@]4(Cn5cc(C(=O)O)nn5)C[C@H]34)c2n1` [Compound 44, 1-{[(1R,2R,3S,4R,5S)-4-(6-Amino-2-methylthio-9H-purin-9-yl)-2,3-dihydroxybicyclo[3.1.0]hex-1-yl]methyl}-1H-1,2,3-triazole-4-carboxylic acid], the Ki in assay [1] (setting [5]) is above 1 µM. Moreover, in assay [2], the “A2B displacement at 1 µM” value came out at 2% ^a.

Take `CSc1nc(N)c2ncn([C@H]3[C@H](O)[C@H](O)[C@]4(Cn5cc(CC(=O)O)nn5)C[C@H]34)c2n1` [Compound 45, 2-(1-{[(1R,2R,3S,4R,5S)-4-(6-Amino-2-methylthio-9H-purin-9-yl)-2,3-dihydroxybicyclo[3.1.0]hex-1-yl]methyl}-1H-1,2,3-triazol-4-yl)acetic acid]: in assay [1] (setting [5]), the Ki is above 1 µM. Besides, the “A2B displacement at 1 µM” value in assay [2] stood at 5% ^a.

`CSc1nc(N)c2ncn([C@H]3[C@H](O)[C@H](O)[C@]4(Cn5cc(CCC(=O)O)nn5)C[C@H]34)c2n1` [Compound 46]: the Ki in assay [1] (setting [5]) was above 1 µM. Moreover, the “A2B displacement at 1 µM” value in assay [2] amounted to 1% ^a.

Take `CCN(CC)CC.CSc1nc(N)c2ncn([C@H]3[C@H](O)[C@H](O)[C@]4(CNc5c(O)c(=O)c5=O)C[C@H]34)c2n1` [Compound 47, Triethylammonium 2-{[(1R,2R,3S,4R,5S)-4-(6-Amino-2-methylthio-9H-purin-9-yl)-2,3-dihydroxybicyclo[3.1.0]hex-1-yl]methyl}amino-3,4-dioxocyclobut-1-en-1-olate]: the “A1 displacement at 1 µM” value in assay [1] is given as 1% ^a. Besides, the Ki in assay [2] (setting [4]) was above 1 µM.

As for `CCN(CC)CC.CSc1nc(N)c2ncn([C@H]3[C@H](O)[C@H](O)[C@]4(CNS(=O)(=O)CC(=O)O)C[C@H]34)c2n1` [Compound 48, Triethylammonium 2-(N-{[(1R,2R,3S,4R,5S)-4-(6-amino-2-methylthio-9H-purin-9-yl)-2,3-dihydroxybicyclo[3.1.0]hex-1-yl]methyl}sulfamoyl)acetate], in assay [1], the “A1 displacement at 1 µM” value came out at 3% ^a. In assay [2] (setting [4]), the Ki was above 1 µM.
